Results: ChEMBL document CHEMBL1153961, “Antiproliferative and antimalarial anthraquinones of Scutia myrtina from the Madagascar forest” (Bioorg Med Chem, 2009)

What was measured:
A2780 = assay: Cytotoxicity against human A2780 cells; assay type: cell-based
Plasmodium falciparum [1] = assay: Antiplasmodial activity against chloroquine-resistant Plasmodium falciparum Dd2 by SYBR green assay; assay type: functional, organism-based
[2] = Selectivity index, ratio of IC50 for human A2780 cells to IC50 for Plasmodium falciparum Dd2; assay type: toxicity, cell-based; conditions: A2780 cells versus Plasmodium falciparum Dd2, read-out: Ratio IC50
Plasmodium falciparum [3] = assay: Antiplasmodial activity against chloroquine-resistant Plasmodium falciparum FCM29 by SYBR green assay; assay type: functional, organism-based
[4] = Selectivity index, ratio of IC50 for human A2780 cells to IC50 for Plasmodium falciparum FCM29; assay type: toxicity, cell-based; conditions: A2780 cells versus Plasmodium falciparum FCM29, read-out: Ratio IC50

| SMILES | IC50 (A2780) [µM] | IC50 (Plasmodium falciparum [1]) [µM] | selectivity ratio [2] | IC50 (Plasmodium falciparum [3]) [µM] | selectivity ratio [4] |
| --- | --- | --- | --- | --- | --- |
| CCC(C)C(=O)OC1(c2ccc3c(c2O)C(=O)c2c(cc(O)c(C(=O)OC)c2C)C3(OC(=O)C(C)CC)c2ccc3c(c2O)C(=O)c2c(cc(O)c(C(=O)OC)c2C)C3=O)c2cccc(O)c2C(=O)c2c1cc(O)c(C(=O)OC)c2C (stereo unspecified) [SCUTIANTHRAQUINONE D] | 4.3 | 3.68 | 1.2 | 5.6 | 0.8 |
| COC(=O)c1c(O)cc2c(c1C)C(=O)c1c(ccc(C3(OC(=O)C(C)C)c4cccc(O)c4C(=O)c4c3cc(O)c(C(=O)OC)c4C)c1O)C2=O (stereo unspecified) [SCUTIANTHRAQUINONE B] | 5.8 | 1.14 | 5.1 | 5.4 | 1.1 |
| COC(=O)c1c(O)cc2c(c1C)C(=O)c1c(O)cccc1C2=O [ALOESAPONARIN I] | > 32 | 5.58 | > 5.7 | 77.6 | – |
| C=C[C@H]1CN2CC[C@H]1C[C@H]2[C@H](O)c1ccnc2ccc(OC)cc12 [QUININE] | – | – | – | 0.22 | – |
| CC(=O)O[C@H]1C(=O)[C@@]2(C)[C@H]([C@H](OC(=O)c3ccccc3)[C@]3(O)C[C@H](OC(=O)[C@H](O)[C@@H](NC(=O)c4ccccc4)c4ccccc4)C(C)=C1C3(C)C)[C@]1(OC(C)=O)CO[C@@H]1C[C@@H]2O [PACLITAXEL] | 0.014 | – | – | – | – |
| COC(=O)c1c(O)cc2c(c1C)C(=O)c1c(ccc(C3(O)c4cccc(O)c4C(=O)c4c3cc(O)c(C(=O)OC)c4C)c1O)C2=O (stereo unspecified) [SCUTIANTHRAQUINONE C] | > 16 | 3.14 | > 5 | 15.4 | > 1 |
| CCC(C)C(=O)OC1(c2ccc3c(c2O)C(=O)c2c(cc(O)c(C(=O)OC)c2C)C3=O)c2cccc(O)c2C(=O)c2c1cc(O)c(C(=O)OC)c2C (stereo unspecified) [SCUTIANTHRAQUINONE A] | 7.6 | 1.23 | 6.1 | 1.2 | 6.3 |
